{
  "source": "patent US20150359798A1",
  "about": "“PIPERAZINYL DERIVATIVE REDUCES HIGH-FAT DIET-INDUCED ACCUMULATION OF FAT IN THE LIVERS, […]” (priority 2011, published 2015)",
  "key": {"[1]": {"test_system": "ROCK II", "experiment": "ROCK II expression in liver of HFD mice (8 weeks)", "format": "in vivo", "settings": "animals treated with HFD", "procedure": "In the 8 week experiment, C57BL/6J male mice (21-22 g), after fasting, were fed a HFD as a model of hyperlipidemia for 8 weeks. During the 2 month experiments, mice fasted for one night before the experiment was changed from a standard diet (STD) to a HFD and then the mice were randomly divided into 5 groups, including 2 control and 3 treatment groups. Six mice were used in each group. […] Liver from the protection group supplemented with KMUP-1 HCl (1 mg/kg/day) were used to determine the HMG CoA reductase expression.\nFor the expression of SR-B1, HMGR, PPARγ and ROCK isolated liver tissues were cut into small chips and placed into an extraction buffer (Tris 10 mM, pH 7.0, NaCl 140 mM, PMSF 2 mM, DTT 5 mM, NP-40 0.5%, pepstatin A 0.05 mM and leupeptin 0.2 mM) for hepatic protein extraction, and centrifuged at 20,000 g for 30 minutes. The obtained protein extract was boiled to a ratio of 4:1 with a sample buffer (Tris 100 mM, pH 6.8, glycerol 20%, SDS 4% and bromophenol blue 0.2%). Electrophoresis was performed using 10% SDS-polyacrylamide gel (1 hour, 100 V, 40 mA, 20 μg protein per lane).\nSeparated proteins, after 3 repeated centrifugations to discard up-layer tissue lipid inpurity, were transferred to PVDF membranes treated with 5% fat-free milk powder to block the nonspecific IgGs (90 minutes, 100 V) and incubated for 1 hour with specific protein antibody. […]"}, "[2]": {"test_system": "mice fed a HFD", "experiment": "HFD-fed mice, 14-week experiment: body weight, liver morphology, H&E, oil globulets", "format": "in vivo", "procedure": "In the 14-week experiment, mice were fed a HFD from week 1 to week 14. During the 3 month experiments, KMUP-1 HCl (2.5 mg) was added to 200 ml tap water and) and drink for 14 weeks or for the last 6 weeks on mice or obese mice fed HFD, separately. 5 mice had free access to drinking water from week 1 to week 14 (protective group) or from week 8 to week 14 (treatment group). Tap water was used to normalize mineral nutrition (Scheme A).\nThe diameter of the white bar in the photograph was standardized at 100 μM for measuring the specific diameter of oil globulets in a whole liver slice, observed by microscope, with the aid of Powerpoint PC computer software (Microsoft®, USA) and printed out by a Hewlett-Packard® printer (USA). An increase in oil globulet diameter and cell number indicated increasing liver steatosis, i.e. steaotohepatitis. In contrast, decrease in diameter and the number of fat cells indicated the inhibition of steaotohepatitis. […] Hematoxylin-eosin (H&E) and […] staining of liver were used to assess oil globulet numbers under a microscope.\nMice liver and epididymal fat pads were cut and soaked in formalin, dehydrated through graded alcohols and embedded in paraffin. Specimens of liver tissues and epididymal fat pads fixed with formalin (4%) were embedded in paraffin for one hour at 4° C., cut into […] sections, and subjected to H&E staining before examination by light microscope. In heart tissues, the 4-μm-thick paraffin sections were cut from paraffin-embedded tissue blocks and de-paraffinized by immersion in xylene and rehydrated. The slices were then dyed with H&E. After gently rinsing with water, each slide was dehydrated through graded alcohols and finally soaked in xylene twice.\nHematoxylin-eosin (H&E) and IHC staining of liver were used to assess oil globulet numbers under a microscope. A 100 μM white bar was used to determine oil globule sizes in the liver. Oil globulets in a cell were counted from larger to smaller until size limitations were reached. Increases of oil globulet diameter and number indicated increasing liver steatosis. In contrast, a decrease in oil globulet diameters and numbers could indicate the inhibition of liver steatosis. Oil globulets were measured using a Nikon Eclipse TE200-S microscope, aided by Powerpoint computer software (Microsoft®) and printed by a HP® printer to measure the diameter and number of oil globulets on paper. Counting: of oil globules was performed from larger to smaller ones until the observation reached its limit."}},
  "data": [
    {"smiles": "Cn1c(=O)c2c(ncn2CCN2CCN(c3ccccc3Cl)CC2)n(C)c1=O", "note": "[KMUP-1, 7-[2-[4-(2-chlorophenyl)piperazinyl]ethyl]-1,3-dimethyl xanthine]", "values": [
      {"measurement": "ROCK II in liver", "setting": "[1]", "result": "inactivated"},
      {"measurement": "fat globules and Mallory's hyaline bodies (H&E staining of liver)", "setting": "[2]; oral 2.5 mg/kg, last 6 weeks/14 weeks", "result": "reduced"},
      {"measurement": "oil globulet number and changes of oil globulet diameter in liver", "setting": "[2]; treatment and protection groups", "result": "sharply reduced"}
    ]}
  ]
}
